Reference: paper PMC7156629, “Fluorescence anisotropy assays for high throughput screening of compounds binding to lipid II, PBP1b, FtsW and MurJ” (Scientific Reports, 2020)
Entries after “also recorded” stand apart in the source; their conditions may differ. Like-named read-outs stand apart in the source and are kept apart here.

What was measured:
[1] = FA direct binding of antibiotics/compounds to NBD-lipid II probe; settings: for Effect on FA signal of the NBD-lipid II probe (direct binding, no protein): increasing compound concentrations, probe 0.33 µM; for Kd: antibiotic binding to probe 0.33 µM, 10 mM Tris-HCl pH 7.5, 3% DMSO
Method: Serial dilutions of each antibiotic in 10 mM Tris-HCl pH 7.5 and 3% DMSO were prepared in 384-well plates (30 µL) in triplicates. […] Blank samples without antibiotic were also prepared for background fluorescence estimation. […] The data were analysed as described above with [R] and [RL] are, respectively, the equilibrium concentration of the compound and the compound-probe complex.

FtsW [2] = target: T1, FtsW (Escherichia coli, UniProt P0ABG4); experiment: FA direct binding of NBD-lipid II probe to FtsW; design: made in house; species or system E. coli; settings: probe 0.33 µM
T1 sequence (P0ABG4 whole entry): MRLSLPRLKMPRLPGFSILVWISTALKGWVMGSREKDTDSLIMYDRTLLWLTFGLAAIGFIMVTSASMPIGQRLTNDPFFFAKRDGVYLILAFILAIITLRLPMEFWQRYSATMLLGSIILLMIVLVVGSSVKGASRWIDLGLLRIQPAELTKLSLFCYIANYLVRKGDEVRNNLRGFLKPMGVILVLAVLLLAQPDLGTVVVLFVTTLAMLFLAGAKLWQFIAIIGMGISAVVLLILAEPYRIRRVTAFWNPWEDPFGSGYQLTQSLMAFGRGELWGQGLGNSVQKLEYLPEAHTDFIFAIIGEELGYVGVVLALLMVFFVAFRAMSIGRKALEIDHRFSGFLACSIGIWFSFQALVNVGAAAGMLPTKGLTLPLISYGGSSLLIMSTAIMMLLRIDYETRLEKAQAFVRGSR
Method: (§1) Fluorescent anisotropy (FA) experiments were performed in a black 384-well plate (Greiner Bio-One Polystyrene Non-Binding Flat Bottom) in triplicates. Serial dilutions of the protein (PBP1bγ, FtsW, FtsW-PBP3 or MurJ) in the appropriate buffer and the NBD-lipid II probe was added at a 0.33 µM final concentration. FtsN was used as a negative control under the same conditions. […] Fluorescence polarization (FP) and anisotropy (A) values were calculated using the equations FP = (I|| − G·I┴)/I||+ G·I┴) and A = 2· FP/3-FP respectively, where I|| is the fluorescence intensity of emitted light parallel to excitation, I┴ is the fluorescence intensity of emitted light perpendicular to excitation, and G is the correction factor that correct for instrument bias. The G factor is experimentally determined using the probe alone. […] For Kd determination, the fluorescence anisotropy data were analysed by nonlinear curve fitting to the Eq. (1) using GraphPad Prism 6.0 software[27].1 (A−Amin)/(Amax−Amin)=[RL]=(Kd+[R]+[L])−[(Kd+R]+[L])^2−4[R][L]]^1/2 Where A, Amin, Amax are the observed, the minimum and the maximum anisotropy, respectively, and [R], [L] and [RL] are the equilibrium concentration of the protein, the probe; and the protein-probe complex, respectively; Kd is the dissociation constant between the protein and the probe.

PBP1b [3] = target: T2, PBP1b (Escherichia coli, UniProt P02919); experiment: Fluorescence anisotropy (FA) direct binding of NBD-lipid II probe to PBP1b; design: made in house; species or system E. coli; settings: probe 0.33 µM
T2 sequence (P02919 46-844): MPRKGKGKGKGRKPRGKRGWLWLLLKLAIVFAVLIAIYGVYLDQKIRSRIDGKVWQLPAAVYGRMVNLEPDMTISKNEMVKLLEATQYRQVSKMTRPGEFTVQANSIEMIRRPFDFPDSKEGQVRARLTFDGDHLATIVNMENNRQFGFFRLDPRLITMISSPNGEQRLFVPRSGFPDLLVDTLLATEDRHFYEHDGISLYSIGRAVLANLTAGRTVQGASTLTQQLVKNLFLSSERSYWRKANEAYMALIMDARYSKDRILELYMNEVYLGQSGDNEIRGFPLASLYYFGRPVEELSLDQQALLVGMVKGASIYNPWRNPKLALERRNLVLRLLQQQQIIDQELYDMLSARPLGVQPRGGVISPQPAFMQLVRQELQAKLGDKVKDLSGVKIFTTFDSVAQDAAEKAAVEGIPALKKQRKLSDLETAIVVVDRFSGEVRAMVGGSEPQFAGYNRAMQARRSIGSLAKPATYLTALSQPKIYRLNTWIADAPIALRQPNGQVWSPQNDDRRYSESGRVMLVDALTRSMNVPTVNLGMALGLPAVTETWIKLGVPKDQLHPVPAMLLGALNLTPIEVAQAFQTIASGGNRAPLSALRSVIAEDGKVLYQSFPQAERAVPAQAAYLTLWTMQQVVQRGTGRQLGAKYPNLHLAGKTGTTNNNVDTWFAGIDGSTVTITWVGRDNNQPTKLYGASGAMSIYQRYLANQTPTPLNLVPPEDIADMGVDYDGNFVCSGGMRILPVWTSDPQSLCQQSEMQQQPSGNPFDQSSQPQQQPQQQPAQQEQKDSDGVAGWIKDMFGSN
Method: as §1

FtsW-PBP3 [4] = target: T3, FtsW-PBP3 (Escherichia coli, UniProt P0ABG4); experiment: FA direct binding of NBD-lipid II probe to FtsW-PBP3 complex; design: made in house; species or system E. coli; settings: probe 0.33 µM
T3 sequence (P0ABG4 whole entry): as the sequence (P0ABG4 whole entry) above
T3 sequence (P0AD68 1-577, further chain): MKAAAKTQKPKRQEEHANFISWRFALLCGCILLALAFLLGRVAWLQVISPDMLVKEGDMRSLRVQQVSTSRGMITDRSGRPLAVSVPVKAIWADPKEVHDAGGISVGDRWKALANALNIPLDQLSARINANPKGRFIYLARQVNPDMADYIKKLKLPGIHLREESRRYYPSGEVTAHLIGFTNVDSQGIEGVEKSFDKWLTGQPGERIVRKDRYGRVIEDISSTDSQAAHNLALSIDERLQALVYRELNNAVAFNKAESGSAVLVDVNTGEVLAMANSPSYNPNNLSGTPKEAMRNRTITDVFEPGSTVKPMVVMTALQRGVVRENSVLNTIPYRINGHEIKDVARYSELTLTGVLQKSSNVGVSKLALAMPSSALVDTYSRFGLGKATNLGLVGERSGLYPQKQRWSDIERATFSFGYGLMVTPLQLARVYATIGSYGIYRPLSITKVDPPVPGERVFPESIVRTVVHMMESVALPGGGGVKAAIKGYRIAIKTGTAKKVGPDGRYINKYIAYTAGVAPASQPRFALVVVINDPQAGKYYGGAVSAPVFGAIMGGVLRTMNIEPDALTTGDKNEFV
Method: as §1

FtsN = target: T4, FtsN (Escherichia coli, UniProt P29131); experiment: FA direct binding of NBD-lipid II probe to FtsN (negative control); settings: FtsN as negative control
T4 construct: made in house
T4 sequence (P29131 whole entry): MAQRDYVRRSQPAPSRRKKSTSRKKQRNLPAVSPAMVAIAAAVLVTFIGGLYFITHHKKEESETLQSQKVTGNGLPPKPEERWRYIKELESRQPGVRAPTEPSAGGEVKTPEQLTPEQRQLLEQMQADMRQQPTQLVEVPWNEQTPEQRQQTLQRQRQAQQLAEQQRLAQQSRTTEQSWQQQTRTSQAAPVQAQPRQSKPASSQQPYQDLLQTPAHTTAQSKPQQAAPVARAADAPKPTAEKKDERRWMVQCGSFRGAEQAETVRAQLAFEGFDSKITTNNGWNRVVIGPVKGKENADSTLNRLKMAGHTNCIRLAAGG
Method: as §1

MurJ [5] = target: T5, MurJ (Escherichia coli, UniProt P0AF16); experiment: FA direct binding of NBD-lipid II probe to MurJ; design: made in house; species or system E. coli; settings: probe 0.33 µM
T5 sequence (P0AF16 whole entry): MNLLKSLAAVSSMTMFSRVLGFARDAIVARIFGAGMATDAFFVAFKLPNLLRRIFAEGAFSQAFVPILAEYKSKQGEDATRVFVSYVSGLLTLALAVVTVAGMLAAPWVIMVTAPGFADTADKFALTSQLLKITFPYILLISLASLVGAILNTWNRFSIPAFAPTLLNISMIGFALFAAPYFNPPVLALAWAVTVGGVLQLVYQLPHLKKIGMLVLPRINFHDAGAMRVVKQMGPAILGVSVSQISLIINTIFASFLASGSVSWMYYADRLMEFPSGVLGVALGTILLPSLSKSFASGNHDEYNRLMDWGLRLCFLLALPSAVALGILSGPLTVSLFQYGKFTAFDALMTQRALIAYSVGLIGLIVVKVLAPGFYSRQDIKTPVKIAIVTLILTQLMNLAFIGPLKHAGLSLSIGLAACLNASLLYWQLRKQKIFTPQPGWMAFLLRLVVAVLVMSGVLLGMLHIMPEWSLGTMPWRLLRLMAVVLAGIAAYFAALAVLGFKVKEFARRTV
Method: as §1

[6] = read-out: Kd (Lipid II), values from the literature, cited from earlier work
FtsW [7] = target: T1, FtsW; experiment: FA competition assay, FtsW:NBD-lipid II; settings: read-out: Ki values (unlabelled-Lipid II); displacement of probe (0.33 µM) from FtsW (~1 µM)
Method: (§2) Fixed concentrations of NBD-lipid II (0.33 µM) and proteins (~1 µM, 50–80% FA saturation[29]) were used. Serial dilutions of each antibiotic,unlabelled lipid II, or control compounds were prepared in 384-well plates in triplicates. Blank samples without proteins were also prepared for background fluorescence estimation. The mixtures (30 µL) were allowed to reach equilibrium for 20 min at room temperature with gentle shaking and the FA signals were recorded at 21 °C using an Infinite F Plex (Tecan, Männedorf, Switzerland) microplate reader equipped with polarization filters with excitation and emission wavelengths at 485 nm and 535 nm respectively. The data were plotted FA in millianisotropy units (mA) as a function of test compound concentration in µM. For the analysis of the completion data, fluorescence anisotropy values were fitted to the Eq. (3) using GraphPad Prism 6.0 software[30].3 [RL]=[R]/[1+Kd/[L](1+[C]/)Ki] Where [RL] is concentration of the receptor-probe complex; [R] is the concentration of the protein; [L] is the concentration of the probe; [C] is the concentration of test compound; Kd is the dissociation constant between the receptor and the probe (determined above); Ki is dissociation constant between the test compound and its target.

MurJ [8] = target: MurJ; design: method as in Bolla, J. R. et al. Nat. Chem. 10 (2018); settings: native mass spectrometry, ref Bolla, J. R. et al. Nat. Chem. 10 (2018), read-out: Kd (Lipid II), values from the literature; cited from earlier work
FtsW-PBP3 [9] = target: T3, FtsW-PBP3; experiment: FA competition assay, FtsW-PBP3:NBD-lipid II; settings: read-out: Ki values (unlabelled-Lipid II); displacement of probe (0.33 µM) from FtsW-PBP3 (~1 µM)
Method: as §2

MurJ [10] = target: T5, MurJ; experiment: FA competition assay, MurJ:NBD-lipid II; settings: read-out: Ki values (unlabelled-Lipid II); displacement of probe (0.33 µM) from MurJ (~1 µM)
Method: as §2

PBP1b [11] = target: T2, PBP1b; experiment: FA competition assay, PBP1b:NBD-lipid II; settings: read-out: Ki values (unlabelled-Lipid II); displacement of probe (0.33 µM) from PBP1b (~1 µM)
Method: as §2

PBP1b [12] = tested on: PBP1b; design: method as in Terrak, M. et al. Mol. Microbiol. 34 (1999); settings: ref Terrak, M. et al. Mol. Microbiol. 34 (1999), read-out: Km (Lipid II), values from the literature, cited from earlier work
[13] = ref Lo, M. C. et al. J. Am. Chem. Soc. 122 (2000); read-out: IC50 (Lipid II), values from the literature; cited from earlier work

## CC1(C)S[C@@H]2[C@H](NC(=O)[C@H](N)c3ccccc3)C(=O)N2[C@H]1C(=O)O [Ampicillin]
[1]
  Effect on FA signal of the NBD-lipid II probe (direct binding, no protein): no significant effect on the FA of the probe
[1]; listed as ampicillin
  Effect on FA signal of the NBD-lipid II probe (direct binding, no protein): do not bind to the probe

## CC(=O)N[C@H]1[C@H](O[C@H]2[C@H](O[C@H](C)C(=O)N[C@@H](C)C(=O)N[C@H](CCC(=O)N[C@@H](CCCCNc3ccc([N+](=O)[O-])c4nonc34)C(=O)N[C@H](C)C(=O)N[C@H](C)C(=O)O)C(=O)O)[C@@H](NC(C)=O)[C@@H](OP(=O)(O)OP(=O)(O)OC/C=C(/C)CC/C=C(/C)CC/C=C(/C)CC/C=C(/C)CC/C=C(/C)CC/C=C(/C)CC/C=C(/C)CC/C=C(/C)CC/C=C(\C)CC/C=C(\C)CCC=C(C)C)O[C@@H]2CO)O[C@H](CO)[C@@H](O)[C@@H]1O [NBD-lipid II, Nitrobenzoxadiazole (NBD)-labelled Lipid II]
FtsW [2]
  Kd: 0.3 ± 0.1 µM
PBP1b [3]
  Kd: 0.5 ± 0.2 µM
FtsW-PBP3 [4]
  Kd: 0.3 ± 0.1 µM
FtsN
  Effect of FtsN on FA of the probe: had no effect on the FA of the probe
MurJ [5]
  Kd: 1.1 ± 0.3 µM

## CN[C@H](CC(C)C)C(=O)N[C@H]1C(=O)N[C@@H](CC(N)=O)C(=O)N[C@H]2C(=O)N[C@H]3C(=O)N[C@H](C(=O)N[C@H](C(=O)O)c4cc(O)cc(O)c4-c4cc3ccc4O)[C@H](O)c3ccc(c(Cl)c3)Oc3cc2cc(c3O[C@@H]2O[C@H](CO)[C@@H](O)[C@H](O)[C@H]2O[C@H]2C[C@](C)(N)[C@H](O)[C@H](C)O2)Oc2ccc(cc2Cl)[C@H]1O [Vancomycin, vancomycin]
[1]
  Kd: 0.3 ± 0.1 µM
  Effect on FA signal of the NBD-lipid II probe (direct binding, no protein): induced an increase of FA
[6]; ref Münch, D. & Sahl, H.-G. Biochim. Biophys. Acta 1848 (2015)
  Kd: 0.5 µM

## C=C(C/C=C(\C)CCC=C(C)C)CCC(C)(C)/C=C/CC/C(C)=C/CO[C@@H](COP(=O)(O)O[C@H]1O[C@H](C(N)=O)[C@@](C)(O)[C@H](OC(N)=O)[C@H]1O[C@@H]1O[C@H](CO[C@@H]2O[C@H](CO)[C@@H](O)[C@H](O)[C@H]2O)[C@@H](O[C@@H]2O[C@H](C)[C@@H](O[C@@H]3O[C@H](C(=O)NC4=C(O)CCC4=O)[C@H](O)[C@H](O)[C@H]3O)[C@H](O)[C@H]2NC(C)=O)[C@H](O)[C@H]1NC(C)=O)C(=O)O [moenomycin A, Moenomycin A]
[1]
  Effect on FA signal of the NBD-lipid II probe (direct binding, no protein): did not significantly affect the FA signal
[1]; listed as Moenomycin
  Effect on FA signal of the NBD-lipid II probe (direct binding, no protein): no effect on the FA of the probe

## N[C@@H](Cc1c[nH]c2ccccc12)C(=O)O [tryptophan]
[1]
  Effect on FA signal of the NBD-lipid II probe (direct binding, no protein): do not bind to the probe; also recorded: no significant effect on the FA of the probe

## CC(=O)N[C@H]1[C@H](O[C@H]2[C@H](O[C@H](C)C(=O)N[C@@H](C)C(=O)N[C@H](CCC(=O)N[C@@H](CCCCN)C(=O)N[C@H](C)C(=O)N[C@H](C)C(=O)O)C(=O)O)[C@@H](NC(C)=O)[C@@H](OP(=O)(O)OP(=O)(O)OC/C=C(/C)CC/C=C(/C)CC/C=C(/C)CC/C=C(/C)CC/C=C(/C)CC/C=C(/C)CC/C=C(/C)CC/C=C(/C)CC/C=C(\C)CC/C=C(\C)CCC=C(C)C)O[C@@H]2CO)O[C@H](CO)[C@@H](O)[C@@H]1O [unlabelled lipid II, undecaprenyl-pyrophosphoryl-MurNAc(pentapeptide)-(beta-1,4)-GlcNAc]
FtsW [7]
  Ki: 5.9 ± 1.8 µM
MurJ [8]
  Kd: 2.9 µM
FtsW-PBP3 [9]
  Ki: 6.8 ± 1 µM
[1]
  Effect on FA signal of the NBD-lipid II probe (direct binding, no protein): no direct effect on the FA of the probe
[1]; listed as unlabeled lipid II
  Effect on FA signal of the NBD-lipid II probe (direct binding, no protein): did not significantly affect the FA signal
MurJ [10]
  Ki: 4.6 ± 0.8 µM
PBP1b [11]
  Ki: 1.4 ± 0.2 µM
PBP1b [12]; listed as Lipid II
  Km: 1.8 ± 0.8 µM
PBP1b [12]; listed as lipid II
  Km: ~2 µM

## nisin (ITSISLCTPGCKTGALMGCNMKTATCHCSIHVSK; not fully specified; Lantibiotic nisin-A; UniProt P13068 24-57, looked up)
[1]
  Kd: 0.3 ± 0.1 µM
  Effect on FA signal of the NBD-lipid II probe (direct binding, no protein): induced an increase of FA
[6]; ref 'T Hart, P. et al. Biochemistry 55 (2016)
  Kd: 0.0146 to 0.05 µM

## ramoplanin
[1]
  Kd: 0.23 ± 0.05 µM
  Effect on FA signal of the NBD-lipid II probe (direct binding, no protein): induced an increase of FA
[13]
  IC50: 0.3 µM
